Data from patent US11149030B2, “Plants having increased tolerance to herbicides” (BASF AGRO B.V., priority 2016, dated 2021).
“And” between values parts separate entries of the source, which are not always exact repeats. Identical values can stand only once.

Tested on: T2 soybean events expressing the indicated Amaranthus PPO2 variant transgene
Experiment: Soybean PPO inhibitor tolerance testing, injury score (Table C)
Type: in vivo, Soybean cv Jake
Settings: V2 stage, 3 days after treatment, individual plants
Protocol: Soybean cv Jake is transformed as previously described by Siminszky et al., Phytochem Rev. 5:445-458 (2006). After regeneration, transformants are transplanted to soil in small pots, placed in growth chambers (16 hr day/8 hr night; 25° C. day/23° C. night; 65% relative humidity; 130-150 microE m-2 s-1) and subsequently tested for the presence of the T-DNA via Taqman analysis. After a few weeks, healthy, transgenic positive, single copy events are transplanted to larger pots and allowed to grow in the growth chamber. An optimal shoot for cutting is about 3-4 inches tall, with at least two nodes present. Each cutting is taken from the original transformant (mother plant) and dipped into rooting hormone powder (indole-3-butyric acid, IBA). The cutting is then placed in oasis wedges inside a bio-dome. The mother plant is taken to maturity in the greenhouse and harvested for seed. Wild type cuttings are also taken simultaneously to serve as negative controls. The cuttings are kept in the bio-dome for 5-7 days and then transplanted to 3 inch pots and then acclimated in the growth chamber for two more days. Subsequently, the cuttings are transferred to the greenhouse, acclimated for approximately 4 days prior to spray. […] g ai/ha saflufenacil plus 1% MSO and/or 25-200 g ai/ha 1,5-dimethyl-6-thioxo-3-(2,2,7-trifluoro-3-oxo-4-(prop-2-ynyl)-3,4-dihydro-2H-benzo[b][1,4]oxazin-6-yl)-1,3,5-triazinane-2,4-dione (CAS 1258836-72-4) plus 1% MSO. Other PPO inhibiting herbicides are also tested in a similar fashion for confirming cross resistance: flumioxazin, butafenacil, acifluorfen, lactofen, bifenox, sulfentrazone, methyl 2-[2-chloro-5-[3-chloro-5-(trifluoromethyl)-2-pyridyl]-4-fluoro-phenoxy]-2-methoxy-acetate, ethyl 2-[2-chloro-5-[3-chloro-5-(trifluoromethyl)-2-pyridyl]-4-fluoro-phenoxy]-2-methoxy-acetate, prop-2-ynyl 2-[2-chloro-5-[3-chloro-5-(trifluoromethyl)-2-pyridyl]-4-fluoro-phenoxy]-2-methoxy-acetate and photosynthesis inhibitor diuron as negative control. […]
The following gives a definition of the injury scores measured above: […]

[1] = soybean T2, transgene L397E_F420M, 25 g ai/ha + 1% v/v MSO
[2] = soybean T2, transgene L397E_F420M, 50 g ai/ha + 1% v/v MSO
[3] = soybean T2, transgene L397E_F420M, 100 g ai/ha + 1% v/v MSO
[4] = soybean T2, transgene L397E_F420M, 200 g ai/ha + 1% v/v MSO
[5] = soybean T2, transgene L397Q_F420M, 25 g ai/ha + 1% v/v MSO
[6] = soybean T2, transgene L397Q_F420M, 50 g ai/ha + 1% v/v MSO
[7] = soybean T2, transgene L397Q_F420M, 100 g ai/ha + 1% v/v MSO
[8] = soybean T2, transgene L397Q_F420M, 200 g ai/ha + 1% v/v MSO
[9] = soybean T2, transgene R128A_F420I event 1, 25 g ai/ha + 1% v/v MSO
[10] = soybean T2, transgene R128A_F420I event 1, 50 g ai/ha + 1% v/v MSO
[11] = soybean T2, transgene R128A_F420I event 1, 100 g ai/ha + 1% v/v MSO
[12] = soybean T2, transgene R128A_F420I event 1, 200 g ai/ha + 1% v/v MSO
[13] = soybean T2, transgene R128A_F420I event 2, 25 g ai/ha + 1% v/v MSO
[14] = soybean T2, transgene R128A_F420I event 2, 50 g ai/ha + 1% v/v MSO
[15] = soybean T2, transgene R128A_F420I event 2, 100 g ai/ha + 1% v/v MSO
[16] = soybean T2, transgene R128A_F420I event 2, 200 g ai/ha + 1% v/v MSO
[17] = soybean T2, transgene R128A_F420I event 3, 25 g ai/ha + 1% v/v MSO
[18] = soybean T2, transgene R128A_F420I event 3, 50 g ai/ha + 1% v/v MSO
[19] = soybean T2, transgene R128A_F420I event 3, 100 g ai/ha + 1% v/v MSO
[20] = soybean T2, transgene R128A_F420I event 3, 200 g ai/ha + 1% v/v MSO
[21] = soybean T2, transgene R128A_F420V, 25 g ai/ha + 1% v/v MSO
[22] = soybean T2, transgene R128A_F420V, 50 g ai/ha + 1% v/v MSO
[23] = soybean T2, transgene R128A_F420V, 100 g ai/ha + 1% v/v MSO
[24] = soybean, Non transgenic, 25 g ai/ha + 1% v/v MSO
[25] = soybean, Non transgenic, 50 g ai/ha + 1% v/v MSO
[26] = soybean, Non transgenic, 100 g ai/ha + 1% v/v MSO
[27] = soybean, Non transgenic, 200 g ai/ha + 1% v/v MSO

Compound: C#CCOC(=O)C(OC)Oc1cc(-c2ncc(C(F)(F)F)cc2Cl)c(F)cc1Cl (stereo not shown) [prop-2-ynyl 2-[2-chloro-5-[3-chloro-5-(trifluoromethyl)-2-pyridyl]-4-fluoro-phenoxy]-2-methoxy-acetate]
- injury on a 0-9 point scale [1]: 1 and 0 and 9
- injury on a 0-9 point scale [2]: 0 (2×) and 1
- injury on a 0-9 point scale [3]: 1
- injury on a 0-9 point scale [4]: 3 (2×) and 4
- injury on a 0-9 point scale [5]: 0
- injury on a 0-9 point scale [6]: 2 and 1 and 0
- injury on a 0-9 point scale [7]: 1 and 2 (2×)
- injury on a 0-9 point scale [8]: 1 (2×) and 2
- injury on a 0-9 point scale [9]: 0
- injury on a 0-9 point scale [10]: 2 and 3 and 4
- injury on a 0-9 point scale [11]: 5
- injury on a 0-9 point scale [12]: 5 (2×) and 4
- injury on a 0-9 point scale [13]: 0
- injury on a 0-9 point scale [14]: 2 (2×) and 3
- injury on a 0-9 point scale [15]: 4 (2×) and 5
- injury on a 0-9 point scale [16]: 5
- injury on a 0-9 point scale [17]: 0
- injury on a 0-9 point scale [18]: 2
- injury on a 0-9 point scale [19]: 1
- injury on a 0-9 point scale [20]: 3 and 4
- injury on a 0-9 point scale [21]: 2
- injury on a 0-9 point scale [22]: 4 (2×) and 5
- injury on a 0-9 point scale [23]: 4
- injury on a 0-9 point scale [24]: 9
- injury on a 0-9 point scale [25]: 9
- injury on a 0-9 point scale [26]: 9
- injury on a 0-9 point scale [27]: 9

Compound: CCOC(=O)C(OC)Oc1cc(-c2ncc(C(F)(F)F)cc2Cl)c(F)cc1Cl (stereo not shown) [ethyl 2-[2-chloro-5-[3-chloro-5-(trifluoromethyl)-2-pyridyl]-4-fluoro-phenoxy]-2-methoxy-acetate]
- injury on a 0-9 point scale [1]: 0 (2×) and 9
- injury on a 0-9 point scale [2]: 0 (2×) and 2
- injury on a 0-9 point scale [3]: 3 (2×) and 9
- injury on a 0-9 point scale [4]: 4 and 3 and 5
- injury on a 0-9 point scale [5]: 1 and 9
- injury on a 0-9 point scale [6]: 9 and 3 and 2
- injury on a 0-9 point scale [7]: 2
- injury on a 0-9 point scale [8]: 2 and 9
- injury on a 0-9 point scale [9]: 0 (2×) and 1
- injury on a 0-9 point scale [10]: 0 (2×) and 1
- injury on a 0-9 point scale [11]: 4
- injury on a 0-9 point scale [12]: 4 (2×) and 5
- injury on a 0-9 point scale [13]: 2 and 5 and 1
- injury on a 0-9 point scale [14]: 1 and 2
- injury on a 0-9 point scale [15]: 5 and 9
- injury on a 0-9 point scale [16]: 7 and 4 (2×)
- injury on a 0-9 point scale [17]: 1
- injury on a 0-9 point scale [18]: 1
- injury on a 0-9 point scale [19]: 3 and 2
- injury on a 0-9 point scale [20]: 3 (2×) and 4
- injury on a 0-9 point scale [21]: 0
- injury on a 0-9 point scale [22]: 5
- injury on a 0-9 point scale [23]: 4
- injury on a 0-9 point scale (soybean T2, transgene R128A_F420V, 200 g ai/ha + 1% v/v MSO): 4 and 5
- injury on a 0-9 point scale [24]: 9
- injury on a 0-9 point scale [25]: 9
- injury on a 0-9 point scale [26]: 9
- injury on a 0-9 point scale [27]: 9
